Data set [1] addresses T1, Coagulation factor X (Homo sapiens, UniProt P00742). As to the kind of experiment: Inhibition of factor 10a (unknown origin).
Data set [2] deals with T1, Coagulation factor X. As to the kind of experiment: Binding affinity to factor 10a (unknown origin) assessed as association rate constant by SPR assay. A general note: Surface plasmon resonance follows binding to a sensor surface in real time, without labels.
Data set [3] concerns the target T1, Coagulation factor X. Kind of data set: Binding affinity to factor 10a (unknown origin) by SPR assay.
Data set [4] has as its target T1, Coagulation factor X. As to the kind of experiment: Binding affinity to factor 10a (unknown origin) assessed as dissociation rate constant by SPR assay.
The test system of data set [5] is Plasma. As to the kind of experiment: Anticoagulant activity in plasma assessed as concentration required to double the activated partial thromboplastin time. The format is ADME, cell-free.

T1 sequence (P00742 41-179 limits assumed): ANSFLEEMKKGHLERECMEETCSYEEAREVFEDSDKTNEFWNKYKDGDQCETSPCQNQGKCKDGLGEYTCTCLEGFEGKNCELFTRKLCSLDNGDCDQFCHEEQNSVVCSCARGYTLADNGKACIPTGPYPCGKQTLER
T1 sequence (P00742 235-488 limits assumed): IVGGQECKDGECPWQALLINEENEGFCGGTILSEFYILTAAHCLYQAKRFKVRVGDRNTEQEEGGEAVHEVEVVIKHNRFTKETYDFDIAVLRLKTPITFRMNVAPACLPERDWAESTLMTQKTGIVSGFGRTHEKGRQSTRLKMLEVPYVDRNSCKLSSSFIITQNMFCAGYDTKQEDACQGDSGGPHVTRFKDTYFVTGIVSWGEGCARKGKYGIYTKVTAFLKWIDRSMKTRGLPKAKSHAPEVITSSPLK

Usually IC50 stands for the point on the concentration scale where inhibition reaches its midpoint. A lower IC50 goes with greater potency. Regarding `CCOC(=O)[C@]1(C)CCC[C@@]2(C)[C@@H]3CC[C@@]4(C)C[C@]3(CC[C@@H]21)C[C@H]4O`, the half-inhibitory concentration (IC50) in data set [1] amounted to 12.7 µM.
`CCOC(=O)[C@]1(C)CCC[C@@]2(C)[C@@H]3CC[C@@]4(C)C[C@]3(CC[C@@H]21)C[C@H]4OCc1cn(-c2ccc(C(C)C)cc2)nn1` came in with an IC50 in data set [1] of 20.3 µM.
In data set [1], `CCOC(=O)[C@]1(C)CCC[C@@]2(C)[C@@H]3CC[C@@]4(C)C[C@]3(CC[C@@H]21)C/C4=N\NC(=S)Nc1ccc(C(F)(F)F)cc1` showed an IC50 of 8.66 µM.
Take `CCOC(=O)[C@]1(C)CCC[C@@]2(C)[C@@H]3CC[C@@]4(C)C[C@]3(CC[C@@H]21)C[C@H]4OCc1cn(-c2ccc(F)cc2)nn1`: the midpoint of inhibition in data set [1], the IC50, lay at 8.74 µM.
In data set [1], `CCOC(=O)[C@]1(C)CCC[C@@]2(C)[C@@H]3CC[C@@]4(C)C[C@]3(CC[C@@H]21)CC4=O` registered a 50% inhibitory concentration (IC50) of 0.786 µM.
In the case of `CCOC(=O)[C@]1(C)CCC[C@@]2(C)[C@@H]3CC[C@@]4(C)C[C@]3(CC[C@@H]21)C[C@H]4OCc1cn(-c2ccc(C)cc2)nn1`, in data set [1], the half-maximal inhibitory concentration (IC50) amounted to 5.53 µM.
Compound `CCOC(=O)[C@]1(C)CCC[C@@]2(C)[C@@H]3CC[C@@]4(C)C[C@]3(CC[C@@H]21)C/C4=N\NC(=S)Nc1ccc(C)cc1` displayed an IC50 in data set [1] of 57.7 µM.
`CCOC(=O)[C@]1(C)CCC[C@@]2(C)[C@@H]3CC[C@@]4(C)C[C@]3(CC[C@@H]21)C/C4=N\NC(=S)Nc1ccccc1C` registered an IC50 in data set [1] of 4.15 µM.
The compound `CCOC(=O)[C@]1(C)CCC[C@@]2(C)[C@@H]3CC[C@@]4(C)C[C@]3(CC[C@@H]21)C[C@H]4OCc1cn(-c2cccc(Cl)c2)nn1` yielded an IC50 in data set [1] of 17.7 µM.
On the same count and under the same terms, the figure for `C[C@@]12CC[C@@H]3[C@@](CC[C@H]4[C@@]3(C)CCC[C@@]4(C)C(=O)O)(CC1=O)C2` [ISOSTEVIOL] is 0.642 µM.
`CCOC(=O)[C@]1(C)CCC[C@@]2(C)[C@@H]3CC[C@@]4(C)C[C@]3(CC[C@@H]21)C/C4=N\N` displayed an IC50 in data set [1] of 2.82 µM.
`CCOC(=O)[C@]1(C)CCC[C@@]2(C)[C@@H]3CC[C@@]4(C)C[C@]3(CC[C@@H]21)C[C@H]4OCc1cn(-c2cccc(C)c2)nn1` gave an IC50 in data set [1] of 41.7 µM.
Still for that read-out and setting: the value for `CCOC(=O)[C@]1(C)CCC[C@@]2(C)[C@@H]3CC[C@@]4(C)C[C@]3(CC[C@@H]21)C/C4=N\NC(=S)Nc1ccc([N+](=O)[O-])cc1` was 8.46 µM.
Regarding `CCOC(=O)[C@]1(C)CCC[C@@]2(C)[C@@H]3CC[C@@]4(C)C[C@]3(CC[C@@H]21)C/C4=N\NC(=S)Nc1cccc(Cl)c1`, in data set [2], the Ka worked out at 1.84 ×10⁴ /M/s. For the same compound, the Kd in data set [3] was found to be 8.44 µM; in data set [4], 1.56 ×10⁻¹ /s. Also, in data set [1], the IC50 amounted to 0.196 µM. Moreover, the 2aPTT in data set [5] came to 17.12 µM.
`CCOC(=O)[C@]1(C)CCC[C@@]2(C)[C@@H]3CC[C@@]4(C)C[C@]3(CC[C@@H]21)C/C4=N\NC(=S)Nc1ccccc1` showed a half-maximal inhibitory concentration (IC50) in data set [1] of 13.4 µM.
`CCOC(=O)[C@]1(C)CCC[C@@]2(C)[C@@H]3CC[C@@]4(C)C[C@]3(CC[C@@H]21)C/C4=N\NC(=S)Nc1ccc(C#N)cc1`: the half-inhibitory concentration (IC50) in data set [1] came out at 13.6 µM.
With `CCOC(=O)[C@]1(C)CCC[C@@]2(C)[C@@H]3CC[C@@]4(C)C[C@]3(CC[C@@H]21)C[C@H]4OCc1cn(Cc2ccccc2)nn1`, the IC50 in data set [1] is 29.4 µM.
In data set [1], `CCOC(=O)[C@]1(C)CCC[C@@]2(C)[C@@H]3CC[C@@]4(C)C[C@]3(CC[C@@H]21)C[C@H]4OCc1cn(-c2cc(C)cc(C)c2)nn1` registered an IC50 of 6.33 µM.
As for `CCOC(=O)[C@]1(C)CCC[C@@]2(C)[C@@H]3CC[C@@]4(C)C[C@]3(CC[C@@H]21)C[C@H]4OCc1cn(-c2ccc(Br)cc2)nn1`, the IC50 in data set [1] was determined as 3.34 µM.
`CCOC(=O)[C@]1(C)CCC[C@@]2(C)[C@@H]3CC[C@@]4(C)C[C@]3(CC[C@@H]21)C/C4=N\NC(=S)Nc1ccc(F)cc1` gave a concentration for half-maximal inhibition (IC50) in data set [1] of 27.5 µM.
With `CCOC(=O)[C@]1(C)CCC[C@@]2(C)[C@@H]3CC[C@@]4(C)C[C@]3(CC[C@@H]21)C/C4=N\NC(=S)Nc1ccc(C(C)(C)C)cc1`, the IC50 in data set [1] was 9.03 µM.
As to `CCOC(=O)[C@]1(C)CCC[C@@]2(C)[C@@H]3CC[C@@]4(C)C[C@]3(CC[C@@H]21)C/C4=N\NC(=S)Nc1ccc(Cl)cc1`, the Ka in data set [2] is 1.93 ×10⁴ /M/s. For the same compound, the figures for the Kd in data set [3] and in data set [4] were 7.52 µM and 1.45 ×10⁻¹ /s, respectively. Also, the IC50 in data set [1] came to 0.153 µM. In data set [5], the 2aPTT is 9.31 µM.
With `CCOC(=O)[C@]1(C)CCC[C@@]2(C)[C@@H]3CC[C@@]4(C)C[C@]3(CC[C@@H]21)C/C4=N\NC(=S)Nc1cccc2ccccc12`, the IC50 in data set [1] was determined as 0.955 µM.
On to `CCOC(=O)[C@]1(C)CCC[C@@]2(C)[C@@H]3CC[C@@]4(C)C[C@]3(CC[C@@H]21)C/C4=N\NC(=S)Nc1cccc(C)c1`, for which the half-maximal inhibitory concentration (IC50) in data set [1] turned out to be 3.76 µM.
The compound `CCOC(=O)[C@]1(C)CCC[C@@]2(C)[C@@H]3CC[C@@]4(C)C[C@]3(CC[C@@H]21)C/C4=N\NC(=S)Nc1ccc(OC)cc1OC` had an IC50 in data set [1] of 33.6 µM.
As for `CCOC(=O)[C@]1(C)CCC[C@@]2(C)[C@@H]3CC[C@@]4(C)C[C@]3(CC[C@@H]21)C[C@H]4OCc1cn(-c2cccc3ccccc23)nn1`, in data set [1], the half-maximal inhibitory concentration (IC50) was 4.87 µM.
On the same count and under the same terms, the figure for `CCOC(=O)[C@]1(C)CCC[C@@]2(C)[C@@H]3CC[C@@]4(C)C[C@]3(CC[C@@H]21)C[C@H]4OCc1cn(-c2ccc3c(c2)OCO3)nn1` is 7.57 µM.
In data set [1], `CCOC(=O)[C@]1(C)CCC[C@@]2(C)[C@@H]3CC[C@@]4(C)C[C@]3(CC[C@@H]21)C/C4=N\NC(=S)Nc1cccc(N(C)C)c1` showed an IC50 of 29.6 µM.
Same read-out and setting: the figure for `CCOC(=O)[C@]1(C)CCC[C@@]2(C)[C@@H]3CC[C@@]4(C)C[C@]3(CC[C@@H]21)C/C4=N\NC(=S)Nc1cccc(Cl)c1Cl` is 7.73 µM; for `CCOC(=O)[C@]1(C)CCC[C@@]2(C)[C@@H]3CC[C@@]4(C)C[C@]3(CC[C@@H]21)C/C4=N\NC(=S)Nc1ccc(Br)cc1` it is 8.77 µM.
Take `CCOC(=O)[C@]1(C)CCC[C@@]2(C)[C@@H]3CC[C@@]4(C)C[C@]3(CC[C@@H]21)C[C@H]4OCc1cn(-c2ccc(OC)cc2)nn1`: the IC50 in data set [1] amounted to 19.3 µM.
`CCOC(=O)[C@]1(C)CCC[C@@]2(C)[C@@H]3CC[C@@]4(C)C[C@]3(CC[C@@H]21)C[C@H]4OCc1cn(-c2ccccc2C)nn1`: in data set [1], the concentration for half-maximal inhibition (IC50) was determined as 34.5 µM.
In data set [1], `C#CCO[C@@H]1C[C@]23CC[C@H]4[C@@](C)(CCC[C@@]4(C)C(=O)OCC)[C@@H]2CC[C@@]1(C)C3` yielded a concentration for half-maximal inhibition (IC50) of 32.4 µM.
As for `CCOC(=O)[C@]1(C)CCC[C@@]2(C)[C@@H]3CC[C@@]4(C)C[C@]3(CC[C@@H]21)C/C4=N\NC(=S)Nc1cccc(OC)c1`, the IC50 in data set [1] came to 18.4 µM.
`CCOC(=O)[C@]1(C)CCC[C@@]2(C)[C@@H]3CC[C@@]4(C)C[C@]3(CC[C@@H]21)C[C@H]4OCc1cn(-c2ccc(Cl)cc2)nn1` returned a 50% inhibitory concentration (IC50) in data set [1] of 27.3 µM.
Take `CCOC(=O)[C@]1(C)CCC[C@@]2(C)[C@@H]3CC[C@@]4(C)C[C@]3(CC[C@@H]21)C/C4=N\NC(=S)Nc1ccccc1Cl`: the Ka in data set [2] amounted to 1.88 ×10⁴ /M/s. Also, the Kd was 9.98 µM in data set [3] and 1.87 ×10⁻¹ /s in data set [4]. In data set [1], this compound returned an IC50 of 0.209 µM.
Take `CCOC(=O)[C@]1(C)CCC[C@@]2(C)[C@@H]3CC[C@@]4(C)C[C@]3(CC[C@@H]21)C/C4=N\NC(=S)Nc1ccc(C(C)C)cc1`: in data set [1], the 50% inhibitory concentration (IC50) turned out to be 54.9 µM.
`CCOC(=O)[C@]1(C)CCC[C@@]2(C)[C@@H]3CC[C@@]4(C)C[C@]3(CC[C@@H]21)C/C4=N\NC(=S)Nc1ccc(OC)cc1`: inhibition in data set [1] was half-maximal at 6.65 µM (IC50).
Still for that read-out and setting: the value for `CCOC(=O)[C@]1(C)CCC[C@@]2(C)[C@@H]3CC[C@@]4(C)C[C@]3(CC[C@@H]21)C[C@H]4OCc1cn(-c2ccccc2)nn1` was 10.4 µM.
